These are literature values, as cited in patent US7316771B2, “Medium for analytic and preparative electrophoresis” (Becton, Dickinson and Company, priority 2000, dated 2008).

Values joined by “and” are separate entries in the source; they are usually repeats but may differ in a detail not shown here. Identical values can stand only once. Like-named read-outs stand apart in the source and are kept apart here.

For this data set the following is noted: for pKa (Base): substance used as base in the medium; for pKa (Acid): substance used as acid in the medium.

Consider `CCC(N)C(=O)O` (centres unmarked) [2-Amino Butyric Acid], for which the “pKa (Base)” value is 2.3 and 2.2.
Take `Oc1ccccn1` [2-Hydroxy-Pyridine]: the “pKa (Acid)” value was 11.8. For the same compound, the “pKa (Acid)” value (listed as 2-hydroxy pyridine) is 11.6.
Regarding `Oc1ccncc1` [4-Hydroxy-Pyridine], the “pKa (Acid)” value is 11.2.
On to `C[N+](C)(C)CC(=O)O` [Betaine], for which the “pKa (Base)” value is on record as 1.8.
In the case of `CN(CC(=O)O)C(=N)N` [Creatine], the “pKa (Base)” value is 2.7.
With `CN1CC(=O)NC1=N` [Creatinine], the “pKa (Base)” value is 4.8.
`NCC(=O)NCC(=O)O` [Glycyl Glycine]: the “pKa (Base)” value is on record as 3.1.
On to `CC(C)C(=O)O` [Isobutyric Acid], for which the “pKa (Acid)” value was 4.5.
With `NC(=O)c1cccnc1` [Nicotinic Acid Amide], the “pKa (Base)” value is listed as 3.1.
In the case of `O=C(O)c1ccccn1` [Picolinic Acid], the “pKa (Acid)” value is on record as 5.5.
